Measurements reported in ChEMBL document CHEMBL1201862, “PubChem BioAssay data set” (2004).
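Tested at 5 concentrations; 48 h exposure; 96-well plates; endpoints linearly interpolated, else capped at highest concentration. GI50 marks 50% less growth.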 Activity calls are given as the source filed them. Rule as the data show it: active = GI50 up to about 1.1 µM and inactive = higher.

Experiments:
Experiment in all cases: NCI anticancer screen, dose series, 48 h
SW-620 = test system: SW-620
EKVX = test system: EKVX
ACHN = test system: ACHN
IGROV-1 = test system: IGROV-1
KM12 = test system: KM12
NCI-H460 = test system: NCI-H460
MDA-MB-435 = test system: MDA-MB-435
U-251 = test system: U-251
M14 = test system: M14
HOP-92 = test system: HOP-92
RPMI-8226 = test system: RPMI-8226
NCI/ADR-RES = test system: NCI/ADR-RES
SF-539 = test system: SF-539
HOP-62 = test system: HOP-62
BT-549 = test system: BT-549
TK-10 = test system: TK-10
DLD-1 = test system: DLD-1
A498 = test system: A498
HCC 2998 = test system: HCC 2998
SR = test system: SR

| SMILES | GI50 (SW-620) | GI50 (EKVX) | GI50 (ACHN) | GI50 (IGROV-1) | GI50 (KM12) | GI50 (NCI-H460) | GI50 (MDA-MB-435) | GI50 (U-251) | GI50 (M14) | GI50 (HOP-92) | GI50 (RPMI-8226) | GI50 (NCI/ADR-RES) | GI50 (SF-539) | GI50 (HOP-62) | GI50 (BT-549) | GI50 (TK-10) | GI50 (DLD-1) | GI50 (A498) | GI50 (HCC 2998) | GI50 (SR) |
| --- | --- | --- | --- | --- | --- | --- | --- | --- | --- | --- | --- | --- | --- | --- | --- | --- | --- | --- | --- | --- |
| CCN(CC)CC[n+]1ccc2c(C)c3[nH]c4ccc(O)cc4c3c(C)c2c1 | 5.57 µM (inactive) | 10.8 µM (inactive) | 2.64 µM (inactive) | 6.44 µM (inactive) | 4.31 µM (inactive) | 0.434 µM (active) | 9.42 µM (inactive) | 1.33 µM (inactive) | 10.7 µM (inactive) | 3.85 µM (inactive) | 7.31 µM (inactive) | 14.6 µM (inactive) | 3.89 µM (inactive) | 2.03 µM (inactive) | 12.7 µM (inactive) | 28.3 µM (inactive) | 11.6 µM (inactive) | 16.2 µM (inactive) | 6.15 µM (inactive) | 0.0278 µM (active) |
| CCOc1ccc(/C(C=O)=C(\Cl)c2ccc(OC)cc2)cc1 | > 100 µM (inactive) | > 52 µM (inactive) | > 100 µM (inactive) | > 100 µM (inactive) | 56.6 µM (inactive) | > 100 µM (inactive) | 9.4 µM (inactive) | > 57.7 µM (inactive) | > 73.1 µM (inactive) | 69.3 µM (inactive) | 5.73 µM (inactive) | 77.4 µM (inactive) | > 100 µM (inactive) | 46.7 µM (inactive) | > 100 µM (inactive) | > 100 µM (inactive) | > 100 µM (inactive) | > 100 µM (inactive) | 82.6 µM (inactive) | 5.16 µM (inactive) |
| CCCCNCC(=O)O[C@]1(CC)C(=O)OCc2c1cc1n(c2=O)Cc2cc3ccccc3nc2-1 | 0.0836 µM (active) | 2.98 µM (inactive) | 0.037 µM (active) | 2.3 µM (inactive) | 1.63 µM (inactive) | 0.0261 µM (active) | 1.57 µM (inactive) | 0.0508 µM (active) | 0.231 µM (active) | 1.52 µM (inactive) | 0.385 µM (active) | 0.0789 µM (active) | 0.0832 µM (active) | < 0.0277 µM (active) | 0.391 µM (active) | 6.15 µM (inactive) | 3.3 µM (inactive) | 0.741 µM (active) | 1.74 µM (inactive) | 0.0101 µM (active) |
| COC(=O)C1=NC(=S)NC(c2ccccc2)C1c1nc2ccccc2s1 (stereo unspecified) | > 100 µM (inactive) | > 100 µM (inactive) | > 100 µM (inactive) | > 100 µM (inactive) | > 100 µM (inactive) | > 100 µM (inactive) | – | > 100 µM (inactive) | > 100 µM (inactive) | > 100 µM (inactive) | – | – | 67.8 µM (inactive) | > 100 µM (inactive) | – | > 100 µM (inactive) | > 100 µM (inactive) | > 100 µM (inactive) | > 100 µM (inactive) | > 100 µM (inactive) |
| COc1ccc(/C=C2\CCC(Cc3ccccc3)(CN(C)C)C2=O)cc1 (stereo unspecified) | 26.7 µM (inactive) | 42.5 µM (inactive) | 82 µM (inactive) | > 100 µM (inactive) | 41.1 µM (inactive) | 67.3 µM (inactive) | 32.1 µM (inactive) | 61.7 µM (inactive) | 26.7 µM (inactive) | 53.3 µM (inactive) | 22.2 µM (inactive) | 42.2 µM (inactive) | 57 µM (inactive) | > 100 µM (inactive) | 68.5 µM (inactive) | > 100 µM (inactive) | 26.4 µM (inactive) | 58.6 µM (inactive) | 24.4 µM (inactive) | 20.6 µM (inactive) |
| O=C1NC(Cc2ccc(O)cc2)C(=O)N2CCCC12 (stereo unspecified) | > 100 µM (inactive) | > 100 µM (inactive) | > 100 µM (inactive) | > 100 µM (inactive) | > 100 µM (inactive) | > 100 µM (inactive) | – | > 100 µM (inactive) | > 100 µM (inactive) | > 100 µM (inactive) | > 100 µM (inactive) | – | > 100 µM (inactive) | > 100 µM (inactive) | – | > 100 µM (inactive) | > 100 µM (inactive) | > 100 µM (inactive) | > 100 µM (inactive) | > 100 µM (inactive) |
| N#CC(C#N)=C1NC(=O)C(c2ccccc2)C(=O)N1 (stereo unspecified) | > 100 µM (inactive) | > 100 µM (inactive) | – | > 100 µM (inactive) | > 100 µM (inactive) | > 100 µM (inactive) | – | > 100 µM (inactive) | > 100 µM (inactive) | > 100 µM (inactive) | > 100 µM (inactive) | – | > 100 µM (inactive) | > 100 µM (inactive) | – | > 100 µM (inactive) | > 100 µM (inactive) | > 100 µM (inactive) | > 100 µM (inactive) | > 100 µM (inactive) |
| O=C(O)CCC(=O)Oc1ccc(O)c2c1CCCC2=O | > 100 µM (inactive) | 58.5 µM (inactive) | > 100 µM (inactive) | > 100 µM (inactive) | > 100 µM (inactive) | > 100 µM (inactive) | – | > 100 µM (inactive) | > 100 µM (inactive) | – | 95.5 µM (inactive) | – | > 100 µM (inactive) | > 100 µM (inactive) | – | > 100 µM (inactive) | > 100 µM (inactive) | > 100 µM (inactive) | > 100 µM (inactive) | 64 µM (inactive) |
| CCCCCCCCC[C@@H]1CC(=O)OCC2OC(O[C@H](CCCCCCCCC)CC(=O)OCC3OC(O[C@H](CCCCCCCCC)CC(=O)OCC4OC(O1)C(O)C(O)C4O)C(O)C(O)C3O)C(O)C(O)C2O (stereo partly specified) | 5.83 µM (inactive) | 12 µM (inactive) | 13.2 µM (inactive) | 14.5 µM (inactive) | 6.5 µM (inactive) | 5.13 µM (inactive) | – | 8.28 µM (inactive) | 4.97 µM (inactive) | 7.05 µM (inactive) | 14.5 µM (inactive) | – | 10.3 µM (inactive) | 12.3 µM (inactive) | – | 8.15 µM (inactive) | 14 µM (inactive) | 14.5 µM (inactive) | 12 µM (inactive) | 6.7 µM (inactive) |
| C[C@H]1CC[P+](Cc2ccccc2)(c2ccccc2)C1 (stereo partly specified) | > 100 µM (inactive) | 73.3 µM (inactive) | > 100 µM (inactive) | 64.7 µM (inactive) | > 100 µM (inactive) | > 100 µM (inactive) | – | 36.7 µM (inactive) | > 100 µM (inactive) | – | 19.5 µM (inactive) | – | > 100 µM (inactive) | > 100 µM (inactive) | – | > 100 µM (inactive) | > 100 µM (inactive) | > 100 µM (inactive) | 67.6 µM (inactive) | 90.4 µM (inactive) |
| COC(=O)C(C(=O)C(=O)Nc1nnc(S)[nH]1)c1csc(-n2nc(-c3ccccc3)cc2-c2ccccc2)n1 (stereo unspecified) | > 100 µM (inactive) | 33.3 µM (inactive) | > 100 µM (inactive) | > 100 µM (inactive) | > 100 µM (inactive) | > 100 µM (inactive) | – | > 100 µM (inactive) | > 100 µM (inactive) | 44.5 µM (inactive) | > 100 µM (inactive) | – | – | > 100 µM (inactive) | – | > 100 µM (inactive) | > 100 µM (inactive) | > 100 µM (inactive) | > 100 µM (inactive) | > 100 µM (inactive) |
| COCCOCOC(C)(C)[C@H](CCOC(C)=O)O[Si](c1ccccc1)(c1ccccc1)C(C)(C)C | 28.1 µM (inactive) | 27.2 µM (inactive) | 15.2 µM (inactive) | 23.6 µM (inactive) | 15.4 µM (inactive) | 5.74 µM (inactive) | – | 12.3 µM (inactive) | 14.1 µM (inactive) | 5.61 µM (inactive) | 3.96 µM (inactive) | – | – | 23.3 µM (inactive) | – | 22.8 µM (inactive) | 13.5 µM (inactive) | 20.4 µM (inactive) | 9.1 µM (inactive) | 4.42 µM (inactive) |
| COc1ccc2nc(-c3ccc(O)cc3)ccc2c1 | > 100 µM (inactive) | 95.5 µM (inactive) | > 100 µM (inactive) | > 100 µM (inactive) | > 100 µM (inactive) | > 100 µM (inactive) | – | – | > 100 µM (inactive) | > 100 µM (inactive) | > 100 µM (inactive) | – | > 100 µM (inactive) | > 100 µM (inactive) | – | > 100 µM (inactive) | > 100 µM (inactive) | – | 10.4 µM (inactive) | > 100 µM (inactive) |
| C[C@]12CCC(=O)C=C1CC[C@@H]1[C@@H]2C(=O)C[C@@]2(C)[C@H]1CC[C@]2(O)C(=O)CO [CORTISONE] | > 100 µM (inactive) | > 100 µM (inactive) | > 100 µM (inactive) | > 100 µM (inactive) | > 100 µM (inactive) | > 100 µM (inactive) | – | > 100 µM (inactive) | > 100 µM (inactive) | > 100 µM (inactive) | > 100 µM (inactive) | – | > 100 µM (inactive) | – | – | > 100 µM (inactive) | > 100 µM (inactive) | > 100 µM (inactive) | > 100 µM (inactive) | > 100 µM (inactive) |
| CCOC(=O)Nc1ccc2c(c1)N(C(=O)CCN(CC)CC)c1ccccc1S2 [ETHACIZINE] | 25.4 µM (inactive) | > 35.9 µM (inactive) | 29.8 µM (inactive) | 40.5 µM (inactive) | 15.5 µM (inactive) | 20.1 µM (inactive) | 29 µM (inactive) | 26.6 µM (inactive) | 22.9 µM (inactive) | 18.9 µM (inactive) | 17.9 µM (inactive) | 45.2 µM (inactive) | 21.1 µM (inactive) | 33.9 µM (inactive) | 28.1 µM (inactive) | 32.9 µM (inactive) | 29.1 µM (inactive) | 23.4 µM (inactive) | 17.3 µM (inactive) | 17.5 µM (inactive) |
